From patent US20100166826A1, “BIODEGRADABLE INTRAVAGINAL DEVICES FOR DELIVERY OF THERAPEUTICS” (University of Uath Research Foundation, priority 2007, published 2010)

Experiment: release of TMC120 from degradable polyurethane (FIG. 5)
Format: physicochemical
Conditions: period of one month; from degradable polyurethane made from terathane-co-(caprolactone), 4,4′-methylenebis-cyclohexane diisocyanate and 1,4-butanediol

SMILES: Cc1cc(C)c(Nc2ccnc(Nc3ccc(C#N)cc3)n2)c(C)c1 [TMC120, 4-[4-(mesitylamino)pyrimidin-2-ylamino)-benzonitrile]
- release profile of TMC120: sustained release profile
